Assay results from patent US12240857B2 (priority 2017, dated 2025).

Tests used:
[1] = system: EBOV mucin-domain-deleted glycoprotein pseudotyped VSV; assay: microbe, parasite or virus in culture; format: cell-based, Zaire ebolavirus; details: Zaire ebolavirus, Vero, read-out: EC50 EBOV
in vitro = details: African green monkey, CC50
[2] = system: BDBV mucin-domain-deleted glycoprotein pseudotyped VSV; assay: microbe, parasite or virus in culture; format: cell-based, Bundibugyo ebolavirus; details: Vesicular stomatitis virus, Vero, read-out: EC50 BDBV

O=C(CC12CC3CC(C1)CC(c1ccccc1)(C3)C2)NCC(=O)NC1CCN(Cc2ccccc2)CC1 [Example A12]
EC50 [1]: 360 nM
CC50 (in vitro): 2500 nM
EC50 [2]: 430 nM

O=C(CC12CC3CC(C1)CC(c1ccccc1)(C3)C2)NCC(=O)N[C@@H]1CCN(Cc2ccccc2)C1 [Example A13]
EC50 [1]: 320 nM
CC50 (in vitro): 2300 nM
EC50 [2]: 320 nM

O=C(CC12CC3CC(C1)CC(c1ccccc1)(C3)C2)NCC(=O)N1CC2CC1CN2Cc1ccccc1 (stereo not drawn) [Example A14]
EC50 [1]: 200 nM
CC50 (in vitro): 6200 nM
EC50 [2]: 230 nM

O=C(N[C@H]1CCN(Cc2ccccc2)C1)C12CC3CC(C1)CC(c1ccccc1)(C3)C2 [Example A15]
EC50 [1]: 1700 nM
CC50 (in vitro): > 10000 nM
EC50 [2]: 2600 nM

O=C(CNC(=O)C12CC3CC(C1)CC(c1ccccc1)(C3)C2)N1CCN(Cc2ccccc2)CC1 [Example A16]
EC50 [1]: 110 nM
CC50 (in vitro): 12900 nM
EC50 [2]: 350 nM

O=C(CC12CC3CC(C1)CC(c1ccccc1)(C3)C2)NCC(=O)N1CCN(Cc2ccccc2)CC1 [Example A17]
EC50 [1]: 930 nM
CC50 (in vitro): > 10000 nM
EC50 [2]: 480 nM

O=C(N[C@@H]1CCN(Cc2ccccc2)C1)C12CC3CC(C1)CC(c1ccccc1)(C3)C2 [Example A19]
EC50 [1]: 290 nM
CC50 (in vitro): 3900 nM
EC50 [2]: 440 nM

O=C(N1CC2CC1CN2Cc1ccccc1)C12CC3CC(C1)CC(c1ccccc1)(C3)C2 (stereo not drawn) [Example A20]
EC50 [1]: 490 nM
CC50 (in vitro): 10600 nM
EC50 [2]: 410 nM

O=C(CC12CC3CC(C1)CC(c1ccccc1)(C3)C2)N[C@@H]1CCN(Cc2ccccc2)C1 [Example A24]
EC50 [1]: 290 nM
CC50 (in vitro): 7200 nM
EC50 [2]: 290 nM

CN1CCN(C(=O)C23CC4CC(C2)CC(c2ccccc2)(C4)C3)CC1 [Example A25]
EC50 [1]: 450 nM
CC50 (in vitro): > 10000 nM
EC50 [2]: 190 nM

CN1CCC(N(C)C(=O)C23CC4CC(C2)CC(c2ccccc2)(C4)C3)CC1 [Example A27]
EC50 [1]: 280 nM
CC50 (in vitro): > 10000 nM
EC50 [2]: 140 nM

O=C(N1CCN(Cc2ccccc2)CC1)C12CC3CC(CC1C3)C2 [Example A28]
EC50 [1]: > 10000 nM
CC50 (in vitro): > 10000 nM
EC50 [2]: > 10000 nM

O=C(N1CCN(Cc2ccccc2)CC1)C12CC3CC(C1)CC(c1ccccc1)(C3)C2 [Example A29]
EC50 [1]: 340 nM
CC50 (in vitro): 5800 nM
EC50 [2]: 270 nM

O=C(CC12CC3CC(C1)CC(c1ccccc1)(C3)C2)N1CCN(Cc2ccccc2)CC1 [Example A30]
EC50 [1]: 340 nM
CC50 (in vitro): 7500 nM
EC50 [2]: 220 nM

O=C(C1C2CC3CC(C2)CC1C3)N1CCN(Cc2ccccc2)CC1 (stereo not drawn) [Example A31]
EC50 [1]: > 10000 nM
CC50 (in vitro): > 10000 nM
EC50 [2]: > 10000 nM

O=C(CC12CC3CC(C1)CC(c1ccccc1)(C3)C2)NC1CCN(Cc2ccccc2)CC1 [Example A32]
EC50 [1]: 200 nM
CC50 (in vitro): 1600 nM
EC50 [2]: 260 nM

O=C(CC12CC3CC(C1)CC(c1ccccc1)(C3)C2)N1CC2CC1CN2Cc1ccccc1 (stereo not drawn) [Example A33]
EC50 [1]: 320 nM
CC50 (in vitro): 2200 nM
EC50 [2]: 300 nM

O=C(N[C@@H]1CCCN(Cc2ccccc2)C1)C12CC3CC(C1)CC(c1ccccc1)(C3)C2 [Example A34]
EC50 [1]: 170 nM
CC50 (in vitro): 1100 nM
EC50 [2]: 220 nM

CN1CC(NC(=O)C23CC4CC(C2)CC(c2ccccc2)(C4)C3)C1 [Example A35]
EC50 [1]: 280 nM
CC50 (in vitro): > 10000 nM
EC50 [2]: 220 nM

O=C(NC1CN(Cc2ccccc2)C1)C12CC3CC(C1)CC(c1ccccc1)(C3)C2 [Example A36]
EC50 [1]: 510 nM
CC50 (in vitro): 4300 nM
EC50 [2]: 300 nM

CN1CC[C@@H](NC(=O)C23CC4CC(C2)CC(c2ccccc2)(C4)C3)C1 [Example A37]
EC50 [1]: 230 nM
CC50 (in vitro): > 10000 nM
EC50 [2]: 240 nM

CN1CCC[C@@H](NC(=O)C23CC4CC(C2)CC(c2ccccc2)(C4)C3)C1 [Example A38]
EC50 [1]: 250 nM
CC50 (in vitro): > 10000 nM
EC50 [2]: 190 nM

CN1CC(NC(=O)CC23CC4CC(C2)CC(c2ccccc2)(C4)C3)C1 [Example A39]
EC50 [1]: 510 nM
CC50 (in vitro): 19100 nM
EC50 [2]: 210 nM

CN1CC[C@@H](NC(=O)C23CC4CC(C)(C2)CC(c2ccccc2)(C4)C3)C1 (stereo partly drawn) [Example A41]
EC50 [1]: 103 nM
CC50 (in vitro): 13600 nM
EC50 [2]: 180 nM

CN1CC(NC(=O)C23CC4CC(C)(C2)CC(c2ccccc2)(C4)C3)C1 (stereo not drawn) [Example A42]
EC50 [1]: 121 nM
CC50 (in vitro): 13900 nM
EC50 [2]: 190 nM

CC12CC3CC(C(=O)N[C@@H]4CN5CCC4CC5)(C1)CC(c1ccccc1)(C3)C2 (stereo partly drawn) [Example A44]
EC50 [1]: 90 nM
CC50 (in vitro): 11000 nM
EC50 [2]: 190 nM

CN(C)CCNC(=O)C12CC3CC(C)(C1)CC(c1ccccc1)(C3)C2 (stereo not drawn) [Example A46]
EC50 [1]: 180 nM
CC50 (in vitro): 13500 nM
EC50 [2]: 210 nM

CC12CC3CC(C(=O)NCCN4CCOCC4)(C1)CC(c1ccccc1)(C3)C2 (stereo not drawn) [Example A48]
EC50 [1]: 1040 nM
CC50 (in vitro): 54900 nM
EC50 [2]: 2000 nM

O=C(N1CCC(NCc2ccccc2)CC1)C12CC3CC(C1)CC(c1ccccc1)(C3)C2 [Example A49, N-Benzyl-1-[(3-phenyladamantan-1-yl)carbonyl]piperidin-4-amine]
EC50 [1]: 210 nM
CC50 (in vitro): 10000 nM
EC50 [2]: 290 nM

O=C(CC12CC3CC(CC(C3)C1)C2)N1CCC2(CCN(Cc3ccccc3)C2)C1 (stereo not drawn) [Example A50, 2-(Adamantan-1-yl)-1-{7-benzyl-2,7-diazaspiro[4.4]nonan-2-yl}ethan-1-one]
EC50 [1]: 2900 nM
CC50 (in vitro): 54900 nM
EC50 [2]: 3300 nM

O=C(CC12CC3CC(CC(C3)C1)C2)NC1CCN(Cc2ccccc2)CC1 [Example A51]
EC50 [1]: 9000 nM
CC50 (in vitro): 10000 nM
EC50 [2]: > 10000 nM

O=C(CC12CC3CC(CC(C3)C1)C2)N[C@@H]1CCN(Cc2ccccc2)C1 [Example A52]
EC50 [1]: 4900 nM
CC50 (in vitro): > 10000 nM
EC50 [2]: 4000 nM

O=C(CC12CC3CC(CC(C3)C1)C2)NCC(=O)NC1CCN(Cc2ccccc2)CC1 [Example A54]
EC50 [1]: 4000 nM
CC50 (in vitro): > 10000 nM
EC50 [2]: 10000 nM

COC(=O)c1ccc(COc2ccccc2CN2CCC(NC(=O)CNC(=O)CC34CC5CC(CC(C5)C3)C4)CC2)cc1 [Example A55]
EC50 [1]: 2900 nM
CC50 (in vitro): > 10000 nM
EC50 [2]: 2600 nM

O=C(CC12CC3CC(CC(C3)C1)C2)NCC(=O)N[C@@H]1CCN(Cc2ccccc2)C1 [Example A56]
EC50 [1]: 3100 nM
CC50 (in vitro): > 10000 nM
EC50 [2]: 10000 nM

COC(=O)c1ccc(COc2ccccc2CN2CC3CC2CN3C(=O)CNC(=O)CC23CC4CC(CC(C4)C2)C3)cc1 (stereo not drawn) [Example A58]
EC50 [1]: 650 nM
CC50 (in vitro): > 10000 nM
EC50 [2]: 8000 nM

NC1CCN(C(=O)C23CC4CC(C2)CC(c2ccccc2)(C4)C3)CC1 [Example A61]
EC50 [1]: 140 nM
CC50 (in vitro): > 10000 nM
EC50 [2]: 80 nM

O=C(N1CC2CCNC2C1)C12CC3CC(C1)CC(c1ccccc1)(C3)C2 (stereo not drawn) [Example A62]
EC50 [1]: 160 nM
CC50 (in vitro): 30000 nM
EC50 [2]: 110 nM

O=C(N1CCC2(CCNC2)C1)C12CC3CC(C1)CC(c1ccccc1)(C3)C2 (stereo not drawn) [Example A64]
EC50 [1]: 710 nM
CC50 (in vitro): > 10000 nM
EC50 [2]: 180 nM

O=C(N1CC2CC1CN2)C12CC3CC(C1)CC(c1ccccc1)(C3)C2 (stereo not drawn) [Example A65]
EC50 [1]: 90 nM
CC50 (in vitro): > 10000 nM
EC50 [2]: 90 nM

O=C(N1CCCNCC1)C12CC3CC(C1)CC(c1ccccc1)(C3)C2 [Example A66]
EC50 [1]: 160 nM
CC50 (in vitro): > 10000 nM
EC50 [2]: 100 nM

COc1ccc(C23CC4CC(CC(C(=O)NC5CCNCC5)(C4)C2)C3)cc1 [Example A67]
EC50 [1]: 390 nM
CC50 (in vitro): > 10000 nM
EC50 [2]: 410 nM

O=C(NC1CCNCC1)C12CC3CC(C1)CC(c1ccc(Cl)cc1)(C3)C2 [Example A69]
EC50 [1]: 220 nM
CC50 (in vitro): 22400 nM
EC50 [2]: 240 nM

O=C(CC12CC3CC(C1)CC(c1ccccc1)(C3)C2)NC1CCNCC1 [Example A70]
EC50 [1]: 490 nM
CC50 (in vitro): > 50000 nM
EC50 [2]: 190 nM

CC12CC3CC(C(=O)NC4CNC4)(C1)CC(c1ccccc1)(C3)C2 (stereo not drawn) [Example A72]
EC50 [1]: 280 nM
CC50 (in vitro): 17400 nM
EC50 [2]: 290 nM

CC12CC3(C)CC(C(=O)NC4CCNCC4)(C1)CC(c1ccccc1)(C2)C3 [Example A73]
EC50 [1]: 320 nM
CC50 (in vitro): 13000 nM
EC50 [2]: 370 nM

O=C(NC1CCNCC1)C12CC3CC(C1)CC(c1ccc(O)cc1)(C3)C2 [Example A74]
EC50 [1]: 1720 nM
CC50 (in vitro): 14000 nM
EC50 [2]: > 1000 nM

O=C(NC1CCNCC1)C12CC3CC(C1)CC(c1ccc(F)cc1)(C3)C2 [Example A75]
EC50 [1]: 300 nM
CC50 (in vitro): 17700 nM
EC50 [2]: 300 nM

CC12CC3CC(C(=O)N[C@H]4CC[C@@H](N)CC4)(C1)CC(c1ccccc1)(C3)C2 (stereo partly drawn) [Example A77]
EC50 [1]: 120 nM
CC50 (in vitro): 8700 nM
EC50 [2]: 220 nM

CC12CC3CC(C(=O)NCCN)(C1)CC(c1ccccc1)(C3)C2 (stereo not drawn) [Example A79]
EC50 [1]: 260 nM
CC50 (in vitro): 4200 nM
EC50 [2]: 290 nM

C[C@H]1CN(C(=O)C23CC4CC(C)(C2)CC(c2ccccc2)(C4)C3)CCN1 (stereo partly drawn) [Example A82]
EC50 [1]: 130 nM
CC50 (in vitro): 4500 nM
EC50 [2]: 160 nM

C[C@H]1CNCCN1C(=O)C12CC3CC(C)(C1)CC(c1ccccc1)(C3)C2 (stereo partly drawn) [Example A83]
EC50 [1]: 100 nM
CC50 (in vitro): 12900 nM
EC50 [2]: 180 nM

N[C@H]1CC[C@H](NC(=O)C2C3CC4CC2CC(c2ccccc2)(C4)C3)CC1 (stereo partly drawn) [Example A84]
EC50 [1]: 146 nM
CC50 (in vitro): 9000 nM
EC50 [2]: 110 nM

C[C@@H]1CN(C(=O)C23CC4CC(C)(C2)CC(c2ccccc2)(C4)C3)C[C@H](C)N1 (stereo partly drawn) [Example A86]
EC50 [1]: 155 nM
CC50 (in vitro): 3900 nM
EC50 [2]: 180 nM

N[C@H]1CC[C@H](NC(=O)C23CC4CC2CC(c2ccccc2)(C4)C3)CC1 (stereo partly drawn) [Example A87]
EC50 [1]: 140 nM
CC50 (in vitro): 1400 nM
EC50 [2]: 190 nM

O=C(NC1CCNCC1)C12CC3CC1CC(c1ccccc1)(C3)C2 (stereo not drawn) [Example A88]
EC50 [1]: 360 nM
CC50 (in vitro): 12500 nM
EC50 [2]: 500 nM
